# Read-outs that look alike come from different tables or passages of the source.
# Legend:
# Type in all cases: in vivo
# mouse [1] = assay: Antalgic activity in the mouse: tail-compression test (Bianchi C. test); details: oral; for Time for which the algic stimulus is tolerated: two hours from administration, equal doses
# Description: The time elapsing between the algic stimulus and the reaction of the mouse trying to get out of said stimulus was determined in seconds.
# The measure was effected at the times 0, 1, 2, 3 hours from administation of the derivative object of the present invention (Product B) and from administration of the comparison compound (Product A).
# 1--two lots of control animals: 0.5 ml/animal of mucilage of 5% arabic gum;
# 2--one lot treated with Product A--4 mg/kg;
# 3--one lot treated with Product A--7 mg/kg;
# 4--one lot treated with Product B--4 mg/kg;
# 5--one lot treated with Product B--7 mg/kg.
# rat [2] = assay: Ulcerogen activity in the fasted rat (autopsic examination of stomach, jejunum, large intestine and liver); details: 5 mg/kg
# mouse [3] = assay: Acute toxicity in the mouse, orally; details: for Autopsical examination (gastroenteric hyperemia, ulcers): oral
# Text: (§1) Firstly, the acute and subacute toxicity in the mouse orally has been tested.
# (§2) Table 1- Acute toxicity, in the mouse, of 1-(p-chlorobenzoyl)5-methoxy-2-methylindole-3-acetic acid (Product A) and of 1-(p-chlorobenzoyl) -5-methoxy-2-methylindole-3-acet-3-oxo-1-isobenzofuranyl ester derivative (Product B)
# [4] = Acute toxicity in the mouse, orally; details: in vivo, oral, read-out: Mortality at 10th day %
# Text: as §1, §2
# rat [5] = assay: Ulcerogen activity in the fasted rat (autopsic examination of stomach, jejunum, large intestine and liver); details: 5 mg/kg; remark: listed apart in the source
# Description: In order to complete the picture of the possible ulcerogen activity, in the rat, of the product which is the object of this invention, a further research on the rat as against Product A, was performed.
# Both the test molecules were suspended in 5% arabic gum and taken to solution.
# The pharmacological treatment at the standard dose of 5 mg/kg was effected orally by means of a gastro-oesophageal probe.
# The groups of animals were treated after 9, 24, 31, 50, 53, 56, 60 and 70 hours from beginning of the fasting. During the fasting period the animals received subcutaneously, 2 ml/die/animal of a 5% glucose solution in […]. The animals were sacrificed, by decapitation, at 48 and 72 hours from beginning of the fasting; there were drawn for autopsic examination, jejunum and large intestine, which were examined microscopically in order to detect the presence of any possible ulcerations.
# [6] = system: paw-oedema, induced by means of sub-plantar injection of carrageenin; assay: Anti-phlogistic activity: carrageenin-induced paw-oedema in the rat; details: oral
# Description: In order to show the therapeutical activity of the derivative, which is an object of this invention, a research was carried out firstly on the anti-phlogistic activity as compared with the one of Product A.
# The research was carried out in the rat by using the test of paw-oedema, induced by means of sub-plantar injection of carrageenin in a 1% solution. 0.1 ml of this solution was injected to each animal.
# One hour before inoculation of the oedemigenous agent, the two test drugs were administered orally (gastric probe) to the different groups, according to the experimental scheme, and contemporaneously were measured, with a base value, the volume of the right untreated paw.
# The treatment was effected on lots of five male animals of average weight of 240-270 g., according to the following experimental scheme:
# 1--three lots of control animals: 10 ml/kg mucilage of arabic gum;
# 2--one lot of animals treated with Product A--5 mg/kg;
# 3--one lot of animals treated with Product A--5.3 mg/kg;
# 4--one lot of animals treated with Product A--7 mg/kg;
# 5--one lot of animals treated with Product B--5 mg/kg;
# 6--one lot of animals treated with Product B--5.3 mg/kg;
# 7--one lot of animals treated with Product B--7 mg/kg.
# [7] = oral, sacrificed at 48 hours from beginning of fasting (3 administrations)
# [8] = oral, sacrificed at 72 hours from beginning of fasting (8 administrations)
Structure (SMILES),Time for which the algic stimulus is tolerated (mouse [1]) [s],"Stomach, autopsic examination (rat [2]; [7])","Stomach, autopsic examination (rat [2]; [8])","Autopsical examination (gastroenteric hyperemia, ulcers) (mouse [3])",mortality at 240 h ([4]; dose 10 mg/kg) [%],mortality at 240 h ([4]; dose 18 mg/kg) [%],mortality at 240 h ([4]; dose 20 mg/kg) [%],mortality at 240 h ([4]; dose 25 mg/kg) [%],mortality at 240 h ([4]; dose 28 mg/kg) [%],"Large intestine (caecum), autopsic examination (rat [5]; [7])","Small intestine (jejunum), autopsic examination (rat [5]; [7])","Caecum, autopsic examination (rat [5]; [8])","Jejunum, autopsic examination (rat [5]; [8])","Antalgic activity compared with the comparison product (mouse [1]; mouse, 4 and 7 mg/kg)","Stomach, autopsic examination (rat [2]; in vivo, po)",Toxic component compared with the free acid (mouse [3]; in vivo),Anti-phlogistic effect (onset and extent) compared with the comparison product [6],"Anti-phlogistic activity compared with Product A ([6]; doses being equal (5, 5.3, 7 mg/kg), within the first three hours)","Caecum, autopsic examination (rat [5]; in vivo, po)","Liver, macroscopic and microscopic examination (rat [5]; in vivo, po)"
"COc1ccc2c(c1)c(CC(=O)O)c(C)n2C(=O)c1ccc(Cl)cc1 [Product A, 1-(p-chlorobenzoyl)-5-methoxy-2-methylindole-3-acetic acid, reference compound]",≤ 30,Stomach diffusely hyperemic,Stomach highly hyperemic with presence of evident macroulcers,very marked gastroenteric hyperemia with presence of numerous ulcers,40,70,90,100,100,highly hyperemic,"slightly hyperemic, with presence of microulcers",Caecum with hemorrhagic microareas,Jejunum diffusely hyperemic,,,,,,,
"COc1ccc2c(c1)c(CC(=O)OC1OC(=O)c3ccccc31)c(C)n2C(=O)c1ccc(Cl)cc1 (stereo not shown) [Product B, 1-(p-chlorobenzoyl)-5-methoxy-2-methyl indole-3-acetic acid 3-oxo-1-isobenzofuranyl ester]",45,,,"only a slight gastroenteric hyperemia, but no ulcer",20,40,50,60,70,,,,Jejunum slightly hyperemic,quite superior,No considerable alteration at stomach level,lesser than the one of the free acid,"remarkably more precocious, as well as more marked","signficantly more active, doses being equal, than the comparison product (Product A) within the first three hours",None at caecum level,nothing pathological resulted
